Experimental data as given in US7521444B2, “Compounds for the treatment of hepatitis C” (Bristol-Myers Squibb Company, priority 2007, dated 2009).

Tests used:
[1] = target: T1, HCV NS5B (Hepatitis C virus genotype 1b, UniProt Q9WMX2); assay: HCV NS5B RdRp enzyme assay (standard or modified); assay type: biochemical; details: HCV NS5B RdRp genotype 1b enzyme; standard or modified assay not stated
T1 construct: The protein was expressed with an 18 amino acid C-terminal truncation to enhance the solubility; made in house; host or cells: E. coli BL21(DE3), pET21a
Description: HCV NS5B RdRp cloning, expression, and purification. The cDNA encoding the NS5B protein of HCV, genotype 1b, was cloned into the pET21a expression vector. The protein was expressed with an 18 amino acid C-terminal truncation to enhance the solubility. The E. coli competent cell line BL21(DE3) was used for expression of the protein. Cultures were grown at 37° C. for ˜4 hours until the cultures reached an optical density of 2.0 at 600 nm. The cultures were cooled to 20° C. and induced with 1 mM IPTG. Fresh ampicillin was added to a final concentration of 50 μg/ml and the cells were grown overnight at 20° C.
Cell pellets (3 L) were lysed for purification to yield 15-24 mgs of purified NS5B. The lysis buffer consisted of 20 mM Tris-HCl, pH 7.4, 500 mM NaCl, 0.5% triton X-100, 1 mM DTT, 1 mM EDTA, 20% glycerol, 0.5 mg/ml lysozyme, 10 mM MgCl2, 15 ug/ml deoxyribonuclease I, and Complete TM protease inhibitor tablets (Roche). After addition of the lysis buffer, frozen cell pellets were resuspended using a tissue homogenizer. To reduce the viscosity of the sample, aliquots of the lysate were sonicated on ice using a microtip attached to a Branson sonicator. The sonicated lysate was centrifuged at 100,000×g for 1 hr at 4° C. and filtered through a 0.2 μm filter unit (Corning).
The protein was purified using two sequential chromatography steps: Heparin sepharose CL-6B and polyU sepharose 4B (Pharmacia). The chromatography buffers were identical to the lysis buffer but contained no lysozyme, deoxyribonuclease I, MgCl2 or protease inhibitor and the NaCl concentration of the buffer was adjusted according to the requirements for charging the protein onto the column. Each column was eluted with a NaCl gradient which varied in length from 5-50 column volumes depending on the column type. After the final chromatography step, the resulting purity of the enzyme is >90% based on SDS-PAGE analysis. The enzyme was aliquoted and stored at −80° C.
Standard HCV NS5B RdRp enzyme assay. HCV RdRp genotype 1b assays were run in a final volume of 60 μl in 96 well plates (Corning 3600). The assay buffer is composed of 20 mM Hepes, pH 7.5, 2.5 mM KCl, 2.5 mM MgCl2, 1 mM DTT, 1.6 U RNAse inhibitor (Promega N2515), 0.01 mg/ml BSA (Sigma B6917), and 2% glycerol. All compounds were serially diluted (3-fold) in DMSO and diluted further in water such that the final concentration of DMSO in the assay was 2%. HCV RdRp genotype 1b enzyme was used at a final concentration of 28 nM. A polyA template was used at 6 nM, and a biotinylated oligo-dT12 primer was used at 180 nM final concentration. Template was obtained commercially (Amersham 27-4110). Biotinylated primer was prepared by Sigma Genosys. 3H-UTP was used at 0.6 μCi (0.29 μM total UTP). Reactions were initiated by the addition of enzyme, incubated at 30° C. for 60 min, and stopped by adding 25 μl of 50 mM EDTA containing SPA beads (4 μg/μl, Amersham RPNQ 0007). Plates were read on a Packard Top Count NXT after >1 hr incubation at room temperature.
Modified HCV NS5B RdRp enzyme assay. A modified enzyme assay was performed essentially as described for the standard enzyme assay except for the following: The biotinylated oligo dT12 primer was precaptured on streptavidin-coated SPA beads by mixing primer and beads in assay buffer and incubating at room temperature for one hour. Unbound primer was removed after centrifugation. The primer-bound beads were resuspended in 20 mM Hepes buffer, pH 7.5 and used in the assay at final concentrations of 20 nM primer and 0.67 μg/μl beads. Order of addition in the assay: enzyme (1.75 nM) was added to diluted compound followed by the addition of a mixture of template (0.36 nM), 3H-UTP (0.6 μCi, 0.29 μM), and primer-bound beads, to initiate the reaction; concentrations given are final. Reactions were allowed to proceed for 4 hours at 30° C.
IC50 values for compounds were determined using seven different [I]. […]

[2] = system: HCV replicon cells; assay: HCV replicon FRET / luciferase assay; assay type: cell-based; details: Hepatitis C virus, 50% reduction in FRET or luciferase activity
Description: FRET Assay Preparation. The HCV FRET screening assay was performed in 96-well cell culture plates. The FRET peptide (Anaspec, Inc.) (Taliani et al., Anal. Biochem. 1996, 240, 60-67) contains a fluorescence donor, EDANS, near one end of the peptide and an acceptor, DABCYL, near the other end. The fluorescence of the peptide is quenched by […] resonance energy transfer (RET) between the donor and the acceptor, but as the NS3 protease cleaves the peptide the products are released from RET quenching and the fluorescence of the donor becomes apparent. The assay reagent was made as follows: 5× cell Luciferase cell culture lysis reagent from Promega (#E153A) diluted to 1× with dH2O, NaCl added to 150 mM final, the FRET peptide diluted to 20 μM final from a 2 mM stock.
To prepare plates, HCV replicon cells, with or without a Renilla luciferase reporter gene, were trypsinized and plated in a 96-well plate with titrated test compounds added in columns 3 through 12; columns 1 and 2 contained a control compound (HCV control inhibitor), and the bottom row contained cells with DMSO only. The plates were then placed in a CO2 incubator at 37° C.
Assays. Subsequent to addition of the test compounds described above (FRET Assay Preparation), at various times the plate was removed and Alamar blue solution (Trek Diagnostics, #00-100) was added to measure cellular toxicity. After reading in a Cytoflour 4000 instrument (PE Biosystems), plates were rinsed with PBS and then used for FRET assay by the addition of 30 ul of the FRET peptide assay reagent described above (FRET Assay Preparation) per well. The plate was then placed into the Cytoflour 4000 instrument which had been set to 340 excite/490 emission, automatic mode for up to 20 cycles and the plate read in a kinetic mode. Typically, the signal to noise using an endpoint analysis after the reads was at least three-fold. Alternatively, after Alamar blue reading, plates were rinsed with PBS, then used for luciferase assay using the Promega Dual-Glo Luciferase Assay System or the Promega EnduRen Live Cell Substrate assay.
Compound analysis was performed by quantification of the relative HCV replicon inhibition and the relative cytotoxicity values. To calculate cytoxicity values, the average Alamar Blue fluorescence signals from the control wells were set as 100% non-toxic. The individual signals in each of the compound test wells were then divided by the average control signal and multiplied by 100% to determine […]. To calculate the HCV replicon inhibition values, an average background value was obtained from the two wells containing the highest amount of HCV control inhibitor at the end of the assay period. These numbers were similar to those obtained from naïve Huh-7 cells. The background numbers were then subtracted from the average signal obtained from the control wells and this number was used as 100% activity. The individual signals in each of the compound test wells were then divided by the averaged control values after background subtraction and multiplied by 100% to determine percent activity. EC50 values were calculated as the concentration which caused a 50% reduction in FRET or luciferase activity. The two numbers generated for the compound plate, percent cytoxicity and percent activity, were used to determine compounds of interest for further analysis.

T1 sequence (Q9WMX2 2420-2992): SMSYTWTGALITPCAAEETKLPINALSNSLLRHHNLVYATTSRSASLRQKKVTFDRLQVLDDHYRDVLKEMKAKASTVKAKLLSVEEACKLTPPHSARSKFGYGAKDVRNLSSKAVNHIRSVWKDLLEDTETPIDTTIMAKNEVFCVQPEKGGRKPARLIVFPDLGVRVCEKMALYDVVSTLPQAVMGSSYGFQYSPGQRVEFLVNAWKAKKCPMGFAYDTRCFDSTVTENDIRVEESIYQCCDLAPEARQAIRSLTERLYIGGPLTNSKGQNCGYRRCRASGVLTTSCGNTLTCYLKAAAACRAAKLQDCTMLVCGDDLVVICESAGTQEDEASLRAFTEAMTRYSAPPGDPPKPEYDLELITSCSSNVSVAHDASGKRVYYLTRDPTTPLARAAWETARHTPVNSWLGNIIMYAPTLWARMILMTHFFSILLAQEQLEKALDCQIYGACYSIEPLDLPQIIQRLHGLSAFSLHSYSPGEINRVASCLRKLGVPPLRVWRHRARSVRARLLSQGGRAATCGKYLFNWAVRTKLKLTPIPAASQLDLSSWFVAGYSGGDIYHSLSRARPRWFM

Row | SMILES | IC50 [1] | EC50 [2]
1 | COc1ccc2c(c1)C1CC1(C(=O)N1CC3CN(C(C)=O)CC3C1)Cn1c-2c(C2CCCCC2)c2ccc(C(=O)NS(=O)(=O)C3CC3)cc21 (stereo not shown) | 4.58 to 500 nM | 4.58 to 500 nM
2 | COc1ccc2c(c1)C1CC1(C(=O)N1CC3CCCN(C(C)=O)C3C1)Cn1c-2c(C2CCCCC2)c2ccc(C(=O)NS(=O)(=O)N(C)C)cc21 (stereo not shown) [drawing 34] | 4.58 to 500 nM | 4.58 to 500 nM
3 | COc1ccc2c(c1)C1CC1(C(=O)N1C[C@@H]3CCCN3C[C@@H]1CC(C)C)Cn1c-2c(C2CCCCC2)c2ccc(C(=O)NS(=O)(=O)N(C)C)cc21 (stereo partly shown) | 4.58 to 500 nM | 4.58 to 500 nM
4 | COc1ccc2c(c1)C1CC1(C(=O)N1CCN3CCCCC3C1)Cn1c-2c(C2CCCCC2)c2ccc(C(=O)NS(=O)(=O)N(C)C)cc21 (stereo not shown) | 4.58 to 500 nM | 4.58 to 500 nM
5 | COc1ccc2c(c1)C1CC1(C(=O)N1CC3CN(C(=O)OC(C)(C)C)CC3C1)Cn1c-2c(C2CCCCC2)c2ccc(C(=O)NS(=O)(=O)C3CC3)cc21 (stereo not shown) | 4.58 to 500 nM | 
6 | COc1ccc2c(c1)C1CC1(C(=O)N1CCN3CCC[C@H]3C1)Cn1c-2c(C2CCCCC2)c2ccc(C(=O)NS(C)(=O)=O)cc21 (stereo partly shown) | 4.58 to 500 nM | 4.58 to 500 nM
7 | CNC(=O)N1CCCC2CN(C(=O)C34CC3c3cc(OC)ccc3-c3c(C5CCCCC5)c5ccc(C(=O)NS(=O)(=O)N(C)C)cc5n3C4)CC21 (stereo not shown) | 4.58 to 500 nM | 4.58 to 500 nM
8 | COc1ccc2c(c1)C1CC1(C(=O)N1CCN3CCCC3C1C)Cn1c-2c(C2CCCCC2)c2ccc(C(=O)NS(=O)(=O)N(C)C)cc21 (stereo not shown) | 4.58 to 500 nM | 4.58 to 500 nM
9 | COc1ccc2c(c1)C1CC1(C(=O)N1CCN3CCCC3C1)Cn1c-2c(C2CCCCC2)c2ccc(C(=O)NS(=O)(=O)C(C)C)cc21 (stereo not shown) | 4.58 to 500 nM | 4.58 to 500 nM
10 | COc1ccc2c(c1)C1CC1(C(=O)N1CCN3CCC[C@@H]3C1)Cn1c-2c(C2CCCCC2)c2ccc(C(=O)NS(=O)(=O)N3CCC3)cc21 (stereo partly shown) | 4.58 to 500 nM | 4.58 to 500 nM
11 | COc1ccc2c(c1)C1CC1(C(=O)N1CC3CCCNC3C1)Cn1c-2c(C2CCCCC2)c2ccc(C(=O)NS(=O)(=O)N(C)C)cc21 (stereo not shown) | 4.58 to 500 nM | 4.58 to 500 nM
12 | COc1ccc2c(c1)C1CC1(C(=O)N1CC3CCCN(C(=O)OC(C)(C)C)C3C1)Cn1c-2c(C2CCCCC2)c2ccc(C(=O)NS(=O)(=O)C3CC3)cc21 (stereo not shown) | 4.58 to 500 nM | 4.58 to 500 nM
13 | COc1ccc2c(c1)C1CC1(C(=O)N1CC3CN(C(=O)N(C)C)CC3C1)Cn1c-2c(C2CCCCC2)c2ccc(C(=O)NS(N)(=O)=O)cc21 (stereo not shown) | 4.58 to 500 nM | 
14 | COc1ccc2c(c1)C1CC1(C(=O)N1CC3CN(C(=O)C4CC4)CC3C1)Cn1c-2c(C2CCCCC2)c2ccc(C(=O)NS(N)(=O)=O)cc21 (stereo not shown) | 4.58 to 500 nM | 
